This passage reports IC50 results from ChEMBL document CHEMBL1146726, “Linker-modified quinoline derivatives targeting HIV-1 integrase: synthesis and biological activity” (Bioorg Med Chem Lett, 2004).

The subject of assay [1] is CCRF-CEM. Put plainly: Concentration that inhibits 50% of viral particle production in de novo infection assay of CEM cells (ex vivo); Not reached. Format: functional, cell-based, Homo sapiens.
Assay [2] relates to Human immunodeficiency virus 1. Put plainly: Inhibition of particle production in de novo infection assay of HIV infected CEM cells. It counts as functional, organism-based. Particulars: Human immunodeficiency virus 1, CCRF-CEM.
Assay [3] has as its target Human immunodeficiency virus type 1 integrase (Human immunodeficiency virus 1, UniProt Q7ZJM1). Put plainly: In vitro inhibition of recombinant integrase activity in a standard 3'-processing assay.

Sequence of Human immunodeficiency virus type 1 integrase (Q7ZJM1 whole entry): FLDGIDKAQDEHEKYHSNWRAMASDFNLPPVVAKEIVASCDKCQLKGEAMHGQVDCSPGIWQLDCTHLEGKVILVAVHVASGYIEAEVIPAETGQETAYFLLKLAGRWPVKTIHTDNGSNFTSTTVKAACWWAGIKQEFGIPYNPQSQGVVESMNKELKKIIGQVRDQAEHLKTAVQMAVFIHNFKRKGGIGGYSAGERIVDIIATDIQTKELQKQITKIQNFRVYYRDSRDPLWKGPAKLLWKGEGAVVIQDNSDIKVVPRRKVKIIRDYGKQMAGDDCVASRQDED

As for `O=C(O)c1ccc2ccc(CCc3ccc(O)c(O)c3)nc2c1O`, the IC50 (as a rule, the point on the concentration scale where inhibition reaches its midpoint) in assay [1] is listed as “Not reached”.

Consider `COc1ccc(CNC(=O)Nc2ccc3ccc(C(=O)O)c(O)c3n2)cc1`, for which the IC50 in assay [2] and in assay [3] was greater than 100 µM each time. In the case of `O=C(NNc1ccc([N+](=O)[O-])cc1[N+](=O)[O-])c1ccc2ccc(C(=O)O)c(O)c2n1`, the results for the IC50 in assay [2] and in assay [3] were greater than 100 µM and 3 µM, respectively. Taken in the same sequence, the figures for `O=C(Nc1ccc(O)c(O)c1)c1ccc2ccc(C(=O)O)c(O)c2n1` were 30 µM and 0.9 µM. In assay [2], `O=C(O)c1ccc2ccc(/C=C/c3ccc(O)c(O)c3)nc2c1O` gave an IC50 of 1 µM. Still for that read-out and setting: next, `O=C(O)c1ccc2ccc(/C=C/c3cc(O)cc(O)c3)nc2c1O`: greater than 100 µM.

Take `O=C(/C=C(\O)c1ccccc1)c1ccc2ccc(C(=O)O)c(O)c2n1`: the IC50 is greater than 100 µM in assay [2] and 30 µM in assay [3]. Take `COc1cc(CNC(=O)c2ccc3ccc(C(=O)O)c(O)c3n2)cc(O)c1O`: the IC50 is 25 µM in assay [2] and 6.5 µM in assay [3].

As for `O=C(NCc1ccc(O)c(O)c1)c1ccc2ccc(C(=O)O)c(O)c2n1`, the figures for the IC50 in assay [2] and in assay [3] were 2 µM and 5 µM, respectively. For `O=C(NCc1ccc(O)c(O)c1)Nc1ccc2ccc(C(=O)O)c(O)c2n1`, the IC50 in assay [2] is 55 µM; in assay [3], greater than 100 µM. Taken in the same sequence, the figures for `O=C(NNc1ccccc1)c1ccc2ccc(C(=O)O)c(O)c2n1` were 45 µM and greater than 100 µM. Taken in the same sequence, the figures for `O=C(NCc1ccc(O)cc1O)c1ccc2ccc(C(=O)O)c(O)c2n1` were 10 µM and 5 µM. Taken in the same sequence, the figures for `O=C(Nc1ccc(O)c(O)c1)Nc1ccc2ccc(C(=O)O)c(O)c2n1` were greater than 100 µM and greater than 100 µM. Regarding `O=C(Nc1ccc2ccc(C(=O)O)c(O)c2n1)c1ccccc1`, the IC50 in assay [2] and in assay [3] was greater than 100 µM each time.

For the compound `O=C(NCc1cccc(O)c1O)c1ccc2ccc(C(=O)O)c(O)c2n1`, the IC50 in assay [2] stood at 40 µM; in assay [3], 5 µM. Taken in the same sequence, the figures for `O=C(NCc1ccc(O)c(O)c1O)c1ccc2ccc(C(=O)O)c(O)c2n1` were 4 µM and 1.5 µM. As for `O=C(NCc1cc(O)cc(O)c1)c1ccc2ccc(C(=O)O)c(O)c2n1`, the IC50 in assay [2] and in assay [3] was greater than 100 µM each time.

Take `COc1cc(NC(=O)c2ccc3ccc(C(=O)O)c(O)c3n2)cc(O)c1O`: the IC50 came out at 2 µM in assay [2] and 6.5 µM in assay [3].
